Laboratory results as given in the METLIN SMRT retention time set (Domingo-Almenara et al. 2019).

Assay: gradient 5% acetonitrile 3 min, to 50% in 2 min, to 85% in 15 min, held 3 min, 100 µL/min
Conditions: column: Zorbax Extend-C18 2.1 x 50 mm; eluents: water / acetonitrile, 0.1% formic acid
Method in brief: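 Retention time was recorded from adduct peaks, which were picked computationally and each inspected manually. Pure standards ran in mixtures of ~100 molecules on HPLC coupled to a quadrupole time-of-flight mass spectrometer, in positive and negative ionization mode, through a Zorbax Extend-C18 column (2.1 × 50 mm, 1.8 μm) at 100 μL/min. Eluents were water and acetonitrile, each with 0.1% formic acid.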

RP-LC retention time	Structure (SMILES)
885 s	Cc1nc(N2CCOCC2)c2c(C)c(C(=O)Nc3cccc(Cl)c3C)sc2n1
1080 s	Clc1ccccc1-c1nnc(-c2ccccc2Cl)o1
649 s	CCOc1ccc(C(C)NC(=O)c2cc(NC(C)=O)cc3nc(C)ccc23)cc1 (centres undefined)
779 s	Cc1noc2nc(C)n(CC(=O)Nc3ccccc3C(F)(F)F)c(=O)c12
961 s	COC(=O)c1c(C)[nH]c(C(=O)N2CCCC(C(=O)N3CCN(c4cc(C)ccc4C)CC3)C2)c1C (centres undefined)
868 s	CCOC(=O)CCc1c(C)nn(-c2cc(N3CCCC3)ncn2)c1C
914 s	CC(C)n1cc(S(=O)(=O)NCc2ccccc2Cl)c2cccnc21
738 s	CC(=O)N1CCc2cc(CNS(=O)(=O)c3ccc(F)cc3)ccc21
746 s	Cc1ccn2c(Nc3ccccc3C)c(-c3ccc(N4CCOCC4)cc3)nc2c1
901 s	COc1ccc(-c2cc3nn(CC(=O)Nc4ccccc4F)c(=O)n3c(C)n2)cc1
753 s	COc1ccc(N2CCN(C(=O)Cn3nc(C(=O)N4CCCC4)c4ccccc43)CC2)cc1
603 s	CN1C(=O)C2CCCCN2c2ccc(C(=O)N3CCN(c4ccccn4)CC3)cc21 (centres undefined)
627 s	O=C(CCSCCc1ccccn1)Nc1c(F)cc(F)cc1Br
845 s	CC1=C(c2ccc(Cl)cc2)S(=O)(=O)N=C1N1CCCN(C(=O)NCC(C)C)CC1
803 s	Cc1cccc(N2C(=O)CN(Cc3ccccc3F)[C@H]3CS(=O)(=O)C[C@H]32)c1
744 s	O=C(Cc1c[nH]c2ccccc12)N1CCC(c2noc(C3CC3)n2)C1 (centres undefined)
704 s	CCN(C(=O)Cn1c(CN(C)C(=O)c2ccco2)nc2ccccc21)c1ccccc1
678 s	COc1ccc(CNC(=O)NCCC(O)C(C)(C)C)cc1 (centres undefined)
734 s	CC1=C(C(=O)Nc2cc3cn[nH]c3cc2F)C(c2ccc(C(F)(F)F)cc2)CC(=O)N1 (centres undefined)
759 s	O=C(CCOc1ccccc1)NCc1ccccc1
589 s	Cc1nc(NC(=O)c2ccc(-n3ccnc3)nn2)sc1C
737 s	COCCn1cc(CCNC(=O)c2cc(F)cc(F)c2)c2cccnc21
682 s	Cn1cc(C(CNC(=O)Nc2ccccc2F)c2cccnc2)c2ccccc21 (centres undefined)

RP-LC retention time	Structure (SMILES)
682 s	CCN1CCC(N(Cc2cccs2)C(=O)Nc2ccc(Cl)cc2)CC1
590 s	CN(C)C(=O)C1CCc2nc(N3CCN(C(=O)C4CCC4)CC3)sc2C1 (centres undefined)
1040 s	C=CCn1c(=O)c2c(nc3n2CC(C)CN3c2cc(C)cc(C)c2)n(C)c1=O (centres undefined)
730 s	COc1cc(OC)c(NC(=O)C2=C(C)C(=O)OC23CCN(C(C)=O)CC3)cc1Cl
672 s	O=C1C(N2CCN(S(=O)(=O)c3ccccc3Cl)CC2)CCN1CCc1ccccc1 (centres undefined)
978 s	COc1cccc(C(=O)Nc2nc(-c3ccc4c(c3)N(C)C(=O)CO4)c(C)s2)c1
944 s	Cc1cccc(Oc2nccn3c(=O)n(CC(=O)NCCCc4ccccc4)nc23)c1C
859 s	CCc1nnc(-c2nnc(N(CC)CC)c3ccccc23)o1
940 s	Cc1cccc2c(=O)n(C3CCN(S(=O)(=O)c4ccccc4F)CC3)cnc12
869 s	Cc1nc2c(ccc3nc(NC(=O)c4ccccc4Br)sc32)s1
870 s	Cc1cccc(CN2CCCn3nc(C(=O)NCCc4ccco4)cc3C2=O)c1
1160 s	CNC(=O)c1c(NC(=O)c2cccc(Cl)c2)sc2c1CCC2
583 s	CCN1CCC2(CC1)OC(=O)C(C)=C2C(=O)NCCCN1CCC(Cc2ccccc2)CC1
723 s	ClCC(CNCc1ccccc1)c1ccccc1 (centres undefined)
665 s	CCOc1cccc(CNc2nc3ccncc3n(CC)c2=O)c1
760 s	CCC(C)NC(=O)C1COC2(CCN(C(=O)CC(C)(C)C)CC2)N1C(=O)c1ccc(OC)cc1 (centres undefined)
604 s	O=C(NCCN1CCOCC1)C1CC(=O)N(CCc2c[nH]c3ccc(Cl)cc23)C1 (centres undefined)
885 s	O=c1n(Cc2cccc(C(F)(F)F)c2)nc2c(S(=O)(=O)N3CCCC3)cccn12
712 s	CCOc1ccc(NC(=O)Cc2cn(C)c3ncccc23)cc1
718 s	O=C(NCC1CN(CC2CC2)CC12CCCCC2)Nc1cc(F)ccc1F (centres undefined)
884 s	Cn1nc(-c2nnc(-c3ccccc3)o2)c2c1CCN(S(=O)(=O)c1cccc(C#N)c1)C2
560 s	Cc1nccn1-c1ccc(N2CCN(C(=O)c3cc4ccccc4o3)CC2)nn1
689 s	Cc1nnc2c(NS(=O)(=O)c3ccccc3C(F)(F)F)cccn12

RP-LC retention time	Structure (SMILES)
1260 s	CCCCCCCNC(=O)C1CCCN(c2ncc(-c3ccccc3)cn2)C1 (centres undefined)
591 s	CC(C)CN(Cc1cccnc1)C1CN(S(=O)(=O)c2cn(C)cn2)C1
702 s	O=C(CSc1ncc(CO)n1Cc1ccc(F)cc1)N1CCCc2ccccc21
651 s	CCC(=O)N1N=C(c2cccc(NS(=O)(=O)CC)c2)CC1c1cccc([N+](=O)[O-])c1 (centres undefined)
664 s	Cc1cc(C)c(S(=O)(=O)NC(C)Cn2cncn2)c(C)c1 (centres undefined)
785 s	COc1cccc(S(=O)(=O)N2CC(F)(F)C[C@H]2c2nnc(C)o2)c1
814 s	CCc1cccc(C)c1Nc1c(-c2ccc(C(=O)NC(C)C)cc2)nc2cnccn12
758 s	COC(=O)C(NC(=O)N1CCCn2nc(-c3ccc(OC)cc3)cc2C1)c1ccccc1 (centres undefined)
734 s	CCOc1ccc(CN(Cc2cc(=O)n3cc(Cl)ccc3n2)CC(C)C)cc1
906 s	O=C(CSc1nccc(N2CCC(Cc3ccccc3)CC2)n1)NCCCc1ccccc1
628 s	CC(C)n1c(=O)sc2cc(S(=O)(=O)N3CCC(C(=O)N4CCN(C)CC4)CC3)ccc21
996 s	CS(=O)(=O)N1CCC(C(=O)Nc2ccccc2Br)Oc2ccccc21 (centres undefined)
549 s	Cc1n[nH]c(C)c1CNC(=O)C1Cn2cccc2C(=O)N1C (centres undefined)
678 s	COc1ccccc1NC(=O)c1[nH]c2cc(C)sc2c1CN(C)C
659 s	Cc1ccccc1NC(=O)N1CCCC(Cn2cnc3cccnc32)C1 (centres undefined)
732 s	O=C(Cn1nc(C(=O)N2CCOCC2)c2ccccc21)Nc1ccc(F)cc1F
934 s	O=C(NCc1cccc(C(F)(F)F)c1)c1cnc(-c2ccccc2)nc1-c1ccncc1
657 s	CCCNC(=O)C1CCN(c2ccc(SCC(=O)Nc3ccc(C(C)C)cc3)nn2)CC1
795 s	O=C(C1CCN(c2ncnc3c2oc2ccccc23)CC1)N1CCN(c2ccccc2)CC1
954 s	CC(C)c1ccc(S(=O)(=O)NCc2ccsc2)cc1
663 s	O=C(NCCS(=O)(=O)N1CCN(c2ncccn2)CC1)c1cccs1
1270 s	Cc1cc(C)cc(-c2nnc(Cc3nc(-c4ccc(Br)cc4)no3)o2)c1
877 s	COc1ccc(-c2nnc(COc3ccc(NC(=O)c4ccc(Cl)nc4)cc3)o2)cc1

RP-LC retention time	Structure (SMILES)
562 s	Clc1ccc(-c2nc(N3CCN(C4CCCCC4)CC3)c3ccccc3n2)cc1
687 s	CCOCCCNC(=O)C1CCCN(c2ccc(-c3ccc(C)c(C)c3)nn2)C1 (centres undefined)
864 s	COC(=O)c1nc(NC(=O)Cn2nc3c(cc2=O)CCCCC3)sc1C(C)C
856 s	CCn1nc(C)n2cc(S(=O)(=O)NCc3ccc(F)cc3F)cc2c1=O
796 s	O=C(COc1ccc(Cl)cc1)Nc1nnc(Cc2cccs2)o1
956 s	Cc1cc(C(=O)N2CCC(Oc3nc4c(Cl)cccc4s3)CC2)no1
1080 s	O=c1c2ccccc2n(Cc2nc(-c3ccc(Cl)cc3)no2)c(=O)n1CC1CCCO1 (centres undefined)
670 s	CCOC(=O)c1ccc(NC(=O)N(Cc2cccs2)C2CCN(CC)CC2)cc1
908 s	O=C(Nc1ccc(C(F)(F)F)cc1)C1CCCN(S(=O)(=O)c2c[nH]c(C(=O)N3CCCC3)c2)C1 (centres undefined)
565 s	CCCN1CCN(c2ncc3c(n2)CCN(Cc2ccccc2OCC)C3)CC1
588 s	Cc1nc(NCCNC(=O)c2cccc(C(F)(F)F)c2)cc(N2CCOCC2)n1
645 s	O=C(c1cccc2c1CCN2C(=O)C1CC1)N1CCOCC1
699 s	O=C(Cc1c(Sc2cccc(F)c2)[nH]c2ccccc12)N1CCN(c2ccccn2)CC1
830 s	O=C(NCc1cc(F)cc(F)c1)c1ccc2c(c1)nc1n2CCN(C2CCCCC2)C1=O
715 s	Cc1cc(C)n2nc(CN(C(=O)c3ccco3)c3ccc(F)cc3)nc2n1
644 s	CCOCC(=O)N1CC(c2nc(CCOCC3CCOCC3)no2)C1
1020 s	Cc1ccc2c(c1)N(S(C)(=O)=O)CCC(C(=O)Nc1cccc(Cl)c1)O2 (centres undefined)
703 s	CCc1nnc(-c2ccc3ccn(CC(=O)Nc4ccc(NC(C)=O)cc4)c3c2)o1
626 s	COc1ccc(NC(=O)NC2CCN(c3cc(N4CCCC4)cnn3)C2)c(C)c1 (centres undefined)
757 s	O=C(Cc1nc(-c2ccccc2)n[nH]1)Nc1ccc(F)c(F)c1
